From ChEMBL document CHEMBL1140971, “Synthesis of new 4-pyrrol-1-yl benzoic acid hydrazide analogs and some derived oxadiazole, triazole and pyrrole ring systems: a novel class of potential antibacterial and antitubercular agents” (2008) come the findings set out here.

Each structure is given as a SMILES string. Converted amounts (≈) assume the structure as drawn.

For orientation: MIC means the lowest concentration found to suppress growth. A low value points to inhibition by little substance.

Common to all, as to assay type: functional
Test [1] has as its system Mycobacterium tuberculosis. Description: Antitubercular activity against Mycobacterium tuberculosis H37Rv after 21 days by broth dilution assay. Particulars: 504 h. On the technique in general: Dilution methods test growth across graded concentrations, often in twofold steps.
Test [2] concerns Bacillus subtilis. Kind of test: Antibacterial activity against Bacillus subtilis ATCC 60511 after 18 hrs by broth microdilution method. The settings on record: ATCC 60511, 18 h.
The test system of test [3] is Escherichia coli. Description: Antibacterial activity against Escherichia coli ATCC 10536 after 18 hrs by broth microdilution method. Particulars: ATCC 10536, 18 h.
Test [4] deals with Enterococcus faecalis. Description: Antibacterial activity against Streptococcus faecalis ATCC 14506 after 18 hrs by broth microdilution method. The settings on record: ATCC 14506, 18 h.
The subject of test [5] is Staphylococcus aureus. Description: Antibacterial activity against Staphylococcus aureus ATCC 11632 after 18 hrs by broth microdilution method. The settings on record: ATCC 11632, 18 h.
In test [6] the test system is Pseudomonas aeruginosa. Kind of test: Antibacterial activity against Pseudomonas aeruginosa ATCC 10145 after 18 hrs by broth microdilution method. Particulars: ATCC 10145, 18 h.
Test [7] deals with Klebsiella pneumoniae. Kind of test: Antibacterial activity against Klebsiella pneumoniae ATCC 10031 after 18 hrs by broth microdilution method. The settings on record: ATCC 10031, 18 h.

For `CN(C)c1ccc(/C=N/NC(=O)c2ccc(-n3cccc3)cc2)cc1`, the MIC in test [1] is 62.5 µg/mL (≈ 188 µM); in test [2] it was 125 µg/mL (≈ 376 µM); in test [3], 250 µg/mL (≈ 752 µM); in test [4] it was 125 µg/mL (≈ 376 µM); in test [5], 250 µg/mL (≈ 752 µM); in test [6] it was 125 µg/mL (≈ 376 µM). In test [7], this compound gave an MIC of 125 µg/mL (≈ 376 µM).

Take `O=C(N/N=C/c1ccc(O)cc1)c1ccc(-n2cccc2)cc1`: the MIC in test [1] was determined as 31.2 µg/mL (≈ 102 µM); in test [2], 62.5 µg/mL (≈ 205 µM); in test [3], 62.5 µg/mL (≈ 205 µM); in test [4], 125 µg/mL (≈ 409 µM); in test [5], 125 µg/mL (≈ 409 µM); in test [6] it was 62.5 µg/mL (≈ 205 µM). Also, the MIC in test [7] was determined as 125 µg/mL (≈ 409 µM).

Regarding `CCn1cc(C(=O)O)c(=O)c2cc(F)c(N3CCNCC3)cc21` [NORFLOXACIN], the MIC is not above 1 µg/mL in test [2]; not above 1 µg/mL in test [3]; less than 5 µg/mL in test [4]; less than 5 µg/mL in test [5]; more than 5 µg/mL in test [6]; not above 1 µg/mL in test [7].

Turning to `O=C(N/N=C/c1c(Cl)cccc1Cl)c1ccc(-n2cccc2)cc1`, the MIC in test [1] is 31.2 µg/mL (≈ 87.2 µM); in test [2], 62.5 µg/mL (≈ 174 µM); in test [3], 62.5 µg/mL (≈ 174 µM); in test [4], 125 µg/mL (≈ 349 µM); in test [5], 125 µg/mL (≈ 349 µM); in test [6] it was 62.5 µg/mL (≈ 174 µM). Moreover, inhibition of growth in test [7] (MIC) required 125 µg/mL (≈ 349 µM).

As to `NNC(=O)c1ccc(-n2cccc2)cc1`, the MIC in test [1] came out at 125 µg/mL (≈ 621 µM); in test [2], 8 µg/mL (≈ 39.8 µM); in test [3], 125 µg/mL (≈ 621 µM); in test [4] it was 31.2 µg/mL (≈ 155 µM); in test [5] it was 250 µg/mL (≈ 1240 µM); in test [6], 62.5 µg/mL (≈ 311 µM). The compound further came in with an MIC in test [7] of 125 µg/mL (≈ 621 µM).

Consider `O=C(O)c1cn(C2CC2)c2cc(N3CCNCC3)c(F)cc2c1=O` [CIPROFLOXACIN], for which the MIC is not above 1 µg/mL in test [2]; not above 1 µg/mL in test [3]; less than 5 µg/mL in test [4]; less than 5 µg/mL in test [5]; more than 5 µg/mL in test [6]; not above 1 µg/mL in test [7].

Consider `NNC(=O)c1ccncc1` [ISONIAZID], for which the MIC in test [1] was 0.25 µg/mL (≈ 1.82 µM).

Turning to `CC(=O)N1N=C(c2ccc(-n3cccc3)cc2)OC1c1c(Cl)cccc1Cl` (stereo not drawn), the MIC in test [1] is 31.2 µg/mL (≈ 78.1 µM); in test [2] it was 31.2 µg/mL (≈ 78.1 µM); in test [3], 62.5 µg/mL (≈ 156 µM); in test [4], 62.5 µg/mL (≈ 156 µM); in test [5], 62.5 µg/mL (≈ 156 µM); in test [6], 31.2 µg/mL (≈ 78.1 µM). Moreover, 62.5 µg/mL (≈ 156 µM) was the least that counted as inhibitory in test [7] (MIC).

Take `O=C(NN=C(c1ccccc1)c1ccccc1)c1ccc(-n2cccc2)cc1`: the MIC in test [1] was 62.5 µg/mL (≈ 171 µM); in test [2] it was 62.5 µg/mL (≈ 171 µM); in test [3], 125 µg/mL (≈ 342 µM); in test [4], 250 µg/mL (≈ 684 µM); in test [5] it was 500 µg/mL (≈ 1370 µM); in test [6], 62.5 µg/mL (≈ 171 µM). The same compound registered an MIC in test [7] of 125 µg/mL (≈ 342 µM).

Consider `Cc1ccc(C)n1NC(=O)c1ccc(-n2cccc2)cc1`, for which the MIC amounted to 31.2 µg/mL (≈ 112 µM) in test [1]; 62.5 µg/mL (≈ 224 µM) in test [2]; 125 µg/mL (≈ 447 µM) in test [3]; 125 µg/mL (≈ 447 µM) in test [4]; 250 µg/mL (≈ 895 µM) in test [5]; 62.5 µg/mL (≈ 224 µM) in test [6]. The same compound yielded an MIC in test [7] of 250 µg/mL (≈ 895 µM).

With `CC(=O)NNC(=O)c1ccc(-n2cccc2)cc1`, the MIC in test [1] stood at 62.5 µg/mL (≈ 257 µM); in test [2], 62.5 µg/mL (≈ 257 µM); in test [3], 500 µg/mL (≈ 2060 µM); in test [4] it was 250 µg/mL (≈ 1030 µM); in test [5], 500 µg/mL (≈ 2060 µM); in test [6], 62.5 µg/mL (≈ 257 µM). Also, inhibition of growth in test [7] (MIC) required 125 µg/mL (≈ 514 µM).

`CC(=O)N1N=C(c2ccc(-n3cccc3)cc2)OC1c1ccccc1` (stereo not drawn): the MIC in test [1] came out at 31.2 µg/mL (≈ 94.3 µM); in test [2] it was 62.5 µg/mL (≈ 189 µM); in test [3], 125 µg/mL (≈ 377 µM); in test [4], 125 µg/mL (≈ 377 µM); in test [5], 250 µg/mL (≈ 754 µM); in test [6], 62.5 µg/mL (≈ 189 µM). This compound returned an MIC in test [7] of 62.5 µg/mL (≈ 189 µM).

On to `O=C(N/N=C/c1ccccc1)c1ccc(-n2cccc2)cc1`, for which the MIC in test [1] was 125 µg/mL (≈ 432 µM); in test [2] it was 125 µg/mL (≈ 432 µM); in test [3] it was 125 µg/mL (≈ 432 µM); in test [4] it was 250 µg/mL (≈ 864 µM); in test [5] it was 250 µg/mL (≈ 864 µM); in test [6] it was 125 µg/mL (≈ 432 µM). In test [7], this compound displayed an MIC of 125 µg/mL (≈ 432 µM).

Regarding `Nn1c(-c2ccc(-n3cccc3)cc2)n[nH]c1=S`, the MIC in test [1] turned out to be 62.5 µg/mL (≈ 243 µM); in test [2], 125 µg/mL (≈ 486 µM); in test [3], 500 µg/mL (≈ 1940 µM); in test [4], 250 µg/mL (≈ 972 µM); in test [5], 500 µg/mL (≈ 1940 µM); in test [6] it was 125 µg/mL (≈ 486 µM). For the same compound, the MIC in test [7] was found to be 125 µg/mL (≈ 486 µM).

As to `CC(C)=NNC(=O)c1ccc(-n2cccc2)cc1`, the MIC is 62.5 µg/mL (≈ 259 µM) in test [1]; 62.5 µg/mL (≈ 259 µM) in test [2]; 125 µg/mL (≈ 518 µM) in test [3]; 125 µg/mL (≈ 518 µM) in test [4]; 250 µg/mL (≈ 1040 µM) in test [5]; 62.5 µg/mL (≈ 259 µM) in test [6]. In addition, in test [7], the lowest concentration to inhibit growth (MIC) was 250 µg/mL (≈ 1040 µM).

Regarding `Sc1nnc(-c2ccc(-n3cccc3)cc2)o1`, the MIC in test [1] stood at 16 µg/mL (≈ 65.8 µM); in test [2] it was 8 µg/mL (≈ 32.9 µM); in test [3], 31.2 µg/mL (≈ 128 µM); in test [4], 31.2 µg/mL (≈ 128 µM); in test [5], 250 µg/mL (≈ 1030 µM); in test [6], 31.2 µg/mL (≈ 128 µM). For the same compound, the lowest concentration to inhibit growth in test [7] (MIC) was 125 µg/mL (≈ 514 µM).

For the compound `C/C(=N\NC(=O)c1ccc(-n2cccc2)cc1)c1ccccc1`, the MIC in test [1] was 62.5 µg/mL (≈ 206 µM); in test [2], 62.5 µg/mL (≈ 206 µM); in test [3] it was 125 µg/mL (≈ 412 µM); in test [4], 125 µg/mL (≈ 412 µM); in test [5] it was 250 µg/mL (≈ 824 µM); in test [6], 62.5 µg/mL (≈ 206 µM). The compound also returned an MIC in test [7] of 125 µg/mL (≈ 412 µM).

With `O=C(N/N=C/c1cccc([N+](=O)[O-])c1)c1ccc(-n2cccc2)cc1`, the MIC stood at 62.5 µg/mL (≈ 187 µM) in test [1]; 250 µg/mL (≈ 748 µM) in test [2]; 500 µg/mL (≈ 1500 µM) in test [3]; 500 µg/mL (≈ 1500 µM) in test [4]; 500 µg/mL (≈ 1500 µM) in test [5]; 62.5 µg/mL (≈ 187 µM) in test [6]. In test [7], this compound registered an MIC of 500 µg/mL (≈ 1500 µM).
